This is an account of results in patent US9550796B2, “Pyrrolopyrrolone derivatives and their use as BET inhibitors” (NOVARTIS AG, priority 2013, dated 2017).

The target in one experiment is BRD4 (Homo sapiens (Human), UniProt O60885). Nature of the experiment: TR-FRET in-vitro binding assay for BRD4. The settings on record: 45 nM His-Brd4(44-477), acetyl-histone H4 (AcK 5, 8, 12, 16) peptide. The procedure, abridged:
(§1)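 Incubation at 30° C lasted 35 min, followed by TR-FRET measurement; each compound was tested as 8 single-point concentrations.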

A further experiment has as its target BRD2 (Homo sapiens (Human), UniProt P25440). Nature of the experiment: TR-FRET in-vitro binding assay for BRD2. The conditions noted are these: 45 nM His-Brd2(60-472), acetyl-histone H4 (AcK 5, 8, 12, 16) peptide. In outline: as §1
(TR-FRET usually uses a lanthanide donor and a delayed reading to cut background.)

The next experiment deals with BRD3 (Homo sapiens (Human), UniProt Q15059). Nature of the experiment: TR-FRET in-vitro binding assay for BRD3. The settings on record: 45 nM His-Brd3(20-477), acetyl-histone H4 (AcK 5, 8, 12, 16) peptide. The procedure, abridged: as §1
BRD3, sequence (Q15059 20-477): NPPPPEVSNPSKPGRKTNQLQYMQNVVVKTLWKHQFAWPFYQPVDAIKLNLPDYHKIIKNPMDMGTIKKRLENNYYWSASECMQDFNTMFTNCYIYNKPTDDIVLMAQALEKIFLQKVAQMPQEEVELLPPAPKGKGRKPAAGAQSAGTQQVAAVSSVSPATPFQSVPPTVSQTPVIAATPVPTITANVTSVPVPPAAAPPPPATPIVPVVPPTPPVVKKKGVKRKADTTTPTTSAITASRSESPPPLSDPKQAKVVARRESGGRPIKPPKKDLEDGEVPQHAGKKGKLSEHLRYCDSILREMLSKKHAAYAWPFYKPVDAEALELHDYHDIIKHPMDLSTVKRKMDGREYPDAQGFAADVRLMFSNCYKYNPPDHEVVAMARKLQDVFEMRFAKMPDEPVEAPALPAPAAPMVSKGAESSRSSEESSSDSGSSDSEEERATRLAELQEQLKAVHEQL
Another experiment has as its target CREBBP (Homo sapiens (Human), UniProt Q92793). Nature of the experiment: AlphaScreen in-vitro binding assay for CREBBP. The conditions noted are these: 324 nM His-CREBBP (1081-1197), acetyl-histone H4 (AcK 5, 8, 12) peptide. In outline: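 IC50 values were derived by non-linear regression of percent inhibition across 8 compound concentrations. Protein was His-tagged CREBBP bromodomain (1081-1197), peptide acetyl-histone H4 (AcK 5, 8, 12), in HEPES pH 7.5 buffer. Read-out was AlphaScreen with Ni-chelate acceptor and streptavidin donor beads, 35 min at 30° C then 60 min at RT.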
A general note: Alpha assays give light when donor and acceptor beads are brought close together.

The next experiment concerns MV-4-11. Nature of the experiment: Cell growth inhibition assay (CellTiter-Glo), MV-4-11. The settings on record: MV-4-11 cells, 4 days; for GI50: Homo sapiens, MV4-11, 96 h, half-maximal growth inhibition; for MV-4-11 TGI: total growth inhibition. The class given is cell-based, human. The procedure, abridged:
(§2)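 Proliferation and viability are quantified by CellTiter-Glo after four days of incubation with serially diluted compound (maximum 10 μM). Four-parameter curve fitting gives IC50 and TGI.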
(ATP-based viability assays read luminescence as a measure of living cells.)

The next experiment has as its system THP-1. The experiment in a line: Cell growth inhibition assay (CellTiter-Glo), THP-1. The class given is cell-based, human. The conditions noted are these: THP-1 cells, 4 days; for GI50: Homo sapiens, 96 h, half-maximal growth inhibition; for THP-1 TGI: total growth inhibition. The procedure, abridged: as §2
In another experiment the test system is K-562. The experiment in a line: Cell growth inhibition assay (CellTiter-Glo), K-562. The settings on record: K-562 cells, 4 days; for GI50: Homo sapiens, K562, 96 h, half-maximal growth inhibition; for K-562 TGI: total growth inhibition. The class given is cell-based, human. The procedure, abridged: as §2

BRD2, sequence (P25440 60-472): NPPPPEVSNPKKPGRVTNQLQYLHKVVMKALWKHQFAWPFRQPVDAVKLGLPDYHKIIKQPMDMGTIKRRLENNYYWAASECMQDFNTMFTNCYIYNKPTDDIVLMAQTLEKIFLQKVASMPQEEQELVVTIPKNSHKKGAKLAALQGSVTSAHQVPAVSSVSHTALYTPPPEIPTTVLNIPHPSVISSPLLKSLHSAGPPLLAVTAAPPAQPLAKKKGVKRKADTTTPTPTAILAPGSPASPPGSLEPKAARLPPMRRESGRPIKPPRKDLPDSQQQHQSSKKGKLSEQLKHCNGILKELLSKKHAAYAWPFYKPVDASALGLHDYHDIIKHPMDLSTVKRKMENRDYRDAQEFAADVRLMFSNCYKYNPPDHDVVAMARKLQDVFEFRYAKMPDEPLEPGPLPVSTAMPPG
CREBBP, sequence (Q92793 1081-1197): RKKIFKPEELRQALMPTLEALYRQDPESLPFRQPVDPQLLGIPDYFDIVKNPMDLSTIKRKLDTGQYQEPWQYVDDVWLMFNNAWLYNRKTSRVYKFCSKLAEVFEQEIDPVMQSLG

In general, IC50 refers to the point on the concentration scale where inhibition reaches its midpoint. Read a low IC50 as greater potency in that assay. Usually GI50 stands for the concentration at which growth is held to half of that of the control. With `Cc1cc(N2C(=O)c3cc(-c4ccccn4)n(C)c3C2c2ccc(Cl)cc2)cn(C)c1=O` (stereo not shown) [Example 52, 6-(4-chlorophenyl)-5-(1,5-dimethyl-6-oxo-1,6-dihydropyridin-3-yl)-1-methyl-2-(pyridin-2-yl)-5,6-dihydropyrrolo[3,4-b]pyrrol-4(1H)-one], the half-maximal inhibitory concentration (IC50) on BRD4 amounted to 55.3 nM; on BRD2, 67 nM; at BRD3, 54 nM; at CREBBP, 720 nM. Besides, the GI50 was found to be 872 nM in the experiment with MV-4-11, 776 nM in the experiment on THP-1 and 2750 nM with K-562. For the same molecule, in the experiment on MV-4-11, the “MV-4-11 TGI” value was found to be 2355 nM. In addition, the “THP-1 TGI” value in the experiment on THP-1 was found to be 2630 nM. Also, the “K-562 TGI” value in the experiment with K-562 is over 10000 nM.
As to `COc1cccc(-c2cc3c(n2C)C(c2ccc(Cl)cc2)N(c2cc(C)c(=O)n(C)c2)C3=O)n1` (stereo not shown) [Example 59, 6-(4-chlorophenyl)-5-(1,5-dimethyl-6-oxo-1,6-dihydropyridin-3-yl)-2-(6-methoxypyridin-2-yl)-1-methyl-5,6-dihydropyrrolo[3,4-b]pyrrol-4(1H)-one], the concentration for half-maximal inhibition (IC50) is 72 nM on BRD4, 80 nM at BRD2, 78 nM at BRD3 and 940 nM on CREBBP. The 50% growth inhibitory concentration (GI50) in the experiment on MV-4-11 turned out to be 74 nM; in the experiment on THP-1, 86.3 nM; with K-562 it was 297 nM. In the experiment with MV-4-11, the “MV-4-11 TGI” value came to 106 nM. Also, the “THP-1 TGI” value with THP-1 was determined as 136 nM. The “K-562 TGI” value with K-562 is over 10000 nM.
In the case of `Cn1cc(N2C(=O)c3cc(-c4cccc(=O)n4C)n(C4CC4)c3C2c2ccc(Cl)cc2)cc(Cl)c1=O` (stereo not shown) [Example 62, 5-(5-chloro-1-methyl-6-oxo-1,6-dihydropyridin-3-yl)-6-(4-chlorophenyl)-1-cyclopropyl-2-(1-methyl-6-oxo-1,6-dihydropyridin-2-yl)-5,6-dihydropyrrolo[3,4-b]pyrrol-4(1H)-one], the IC50 on BRD4 is 170 nM; at BRD2, 140 nM; on BRD3, 130 nM; at CREBBP, 270 nM. Further, the GI50 in the experiment with MV-4-11 amounted to 226 nM; with THP-1 it was 758 nM; in the experiment on K-562, 1030 nM. The “MV-4-11 TGI” value with MV-4-11 was found to be 329 nM. Besides, the “THP-1 TGI” value with THP-1 turned out to be 1190 nM. In addition, the “K-562 TGI” value in the experiment on K-562 is over 10000 nM.
Take `Cc1cc(N2C(=O)c3cc(-c4cccc(=O)n4C)n(C4CC4)c3C2c2ccc(Cl)cc2)cn(C)c1=O` (stereo not shown) [Example 63, 6-(4-chlorophenyl)-1-cyclopropyl-5-(1,5-dimethyl-6-oxo-1,6-dihydropyridin-3-yl)-2-(1-methyl-6-oxo-1,6-dihydropyridin-2-yl)-5,6-dihydropyrrolo[3,4-b]pyrrol-4(1H)-one]: the IC50 on BRD4 was 120 nM; on BRD2, 100 nM; on BRD3, 85 nM; on CREBBP, 180 nM. The GI50 came to 94.4 nM in the experiment on MV-4-11, 426 nM with THP-1 and 680 nM with K-562. For the same molecule, in the experiment with MV-4-11, the “MV-4-11 TGI” value was 160 nM. For the same molecule, in the experiment on THP-1, the “THP-1 TGI” value turned out to be 788 nM. Besides, the “K-562 TGI” value in the experiment with K-562 is over 10000 nM.
Turning to `Cn1cc(N2C(=O)c3cc(-c4cccn(C)c4=O)n(C4CC4)c3C2c2ccc(Cl)cc2)cc(Cl)c1=O` (stereo not shown) [Example 64, 5-(5-chloro-1-methyl-6-oxo-1,6-dihydropyridin-3-yl)-6-(4-chlorophenyl)-1-cyclopropyl-2-(1-methyl-2-oxo-1,2-dihydropyridin-3-yl)-5,6-dihydropyrrolo[3,4-b]pyrrol-4(1H)-one], the IC50 on BRD4 was 85 nM; on BRD2, 50 nM; on BRD3, 82 nM; on CREBBP it was 1500 nM. For the same molecule, the results for the concentration for 50% growth inhibition (GI50) with MV-4-11, with THP-1 and with K-562 were 118 nM, 109 nM and 353 nM, respectively. In addition, the “MV-4-11 TGI” value with MV-4-11 turned out to be 196 nM. The “THP-1 TGI” value with THP-1 came to 215.5 nM. For the same molecule, the “K-562 TGI” value with K-562 was over 10000 nM.
`Cc1cc(N2C(=O)c3cc(-c4ccc(=O)n(C)c4)n(C4CC4)c3C2c2ccc(Cl)cc2)cn(C)c1=O` (stereo not shown) [Example 67, 6-(4-chlorophenyl)-1-cyclopropyl-5-(1,5-dimethyl-6-oxo-1,6-dihydropyridin-3-yl)-2-(1-methyl-6-oxo-1,6-dihydropyridin-3-yl)-5,6-dihydropyrrolo[3,4-b]pyrrol-4(1H)-one]: the concentration for half-maximal inhibition (IC50) on BRD4 was 88 nM; at BRD2, 42 nM; at BRD3, 85 nM; on CREBBP, 300 nM. Further, the 50% growth inhibitory concentration (GI50) in the experiment with MV-4-11 came to 66.7 nM; in the experiment on THP-1, 143 nM; in the experiment on K-562, 404 nM. Further, the “MV-4-11 TGI” value with MV-4-11 is 118 nM. Further, the “THP-1 TGI” value with THP-1 came to 353 nM. The “K-562 TGI” value with K-562 is over 10000 nM.
For the molecule `Cc1cc(N2C(=O)c3cc(C4CC4)n(C)c3C2c2ccc(Cl)cc2)cn(C)c1=O` (stereo not shown) [Example 68, 6-(4-chlorophenyl)-2-cyclopropyl-5-(1,5-dimethyl-6-oxo-1,6-dihydropyridin-3-yl)-1-methyl-5,6-dihydropyrrolo[3,4-b]pyrrol-4(1H)-one], the half-inhibitory concentration (IC50) was 63.2 nM on BRD4, 67.2 nM on BRD2, 52.2 nM at BRD3 and 620 nM at CREBBP. Moreover, the figures for the concentration for 50% growth inhibition (GI50) in the experiment with MV-4-11, with THP-1 and with K-562 were 28.7 nM, 46.8 nM and 148 nM, respectively. Also, the “MV-4-11 TGI” value in the experiment on MV-4-11 is 51.7 nM. In addition, the “THP-1 TGI” value with THP-1 came to 96 nM. Besides, the “K-562 TGI” value in the experiment with K-562 was over 10000 nM.
For `Cc1cc(N2C(=O)c3cc(C)n(C)c3C2c2ccc(Cl)cc2)cn(C)c1=O` (stereo not shown) [Example 69, 6-(4-chlorophenyl)-5-(1,5-dimethyl-6-oxo-1,6-dihydropyridin-3-yl)-1,2-dimethyl-5,6-dihydropyrrolo[3,4-b]pyrrol-4(1H)-one], the half-inhibitory concentration (IC50) at BRD4 was 121 nM; at BRD2, 159 nM; at BRD3 it was 87 nM; at CREBBP, 1200 nM. In addition, the 50% growth inhibitory concentration (GI50) in the experiment on MV-4-11 was 37.8 nM; in the experiment with THP-1, 65 nM; in the experiment with K-562, 236 nM. The “MV-4-11 TGI” value with MV-4-11 is 84.3 nM. For the same molecule, the “THP-1 TGI” value in the experiment with THP-1 is 144 nM. In the experiment on K-562, the “K-562 TGI” value was over 10000 nM.
On to `Cc1cc(N2C(=O)c3ccn(C)c3C2c2ccc(Cl)cc2)cn(C)c1=O` (stereo not shown) [Example 72, 6-(4-chlorophenyl)-5-(1,5-dimethyl-6-oxo-1,6-dihydropyridin-3-yl)-1-methyl-5,6-dihydropyrrolo[3,4-b]pyrrol-4(1H)-one], for which the IC50 is 89.7 nM on BRD4, 170 nM at BRD2, 90.8 nM at BRD3 and 1430 nM at CREBBP. In addition, the 50% growth inhibitory concentration (GI50) worked out at 76.4 nM with MV-4-11, 159 nM in the experiment on THP-1 and 294 nM in the experiment with K-562. Further, the “MV-4-11 TGI” value in the experiment on MV-4-11 was determined as 125 nM. Moreover, in the experiment on THP-1, the “THP-1 TGI” value amounted to 301 nM. For the same molecule, in the experiment on K-562, the “K-562 TGI” value is over 10000 nM.
For the molecule `Cc1cc(N2C(=O)c3ccn(C)c3C2c2ccccc2)cn(C)c1=O` (stereo not shown) [Example 79, 5-(1,5-dimethyl-6-oxo-1,6-dihydropyridin-3-yl)-1-methyl-6-phenyl-5,6-dihydropyrrolo[3,4-b]pyrrol-4(1H)-one], the IC50 came to 434 nM on BRD4, 660 nM at BRD2, 222 nM at BRD3 and 26800 nM on CREBBP. The GI50 worked out at 295 nM in the experiment on MV-4-11, 396 nM in the experiment with THP-1 and 1790 nM in the experiment on K-562. In the experiment on MV-4-11, the “MV-4-11 TGI” value worked out at 496 nM. Further, the “THP-1 TGI” value in the experiment on THP-1 is 904 nM. Besides, in the experiment on K-562, the “K-562 TGI” value was over 10000 nM.
